According to ChEMBL document CHEMBL5696442, “Discovery of type II inhibitors of TGFβ-activated kinase 1 (TAK1) and mitogen-activated protein kinase kinase kinase kinase 2 (MAP4K2)” (J Med Chem, 2015):
Active and inactive are the calls of the source. The rule behind the calls is not given here.

Key:
[1] = biological target: Mitogen-activated protein kinase kinase kinase 11 (Homo sapiens) (UniProt Q16584); test: Inhibition of MLK3 Lys2 labeling site in human Huh-7 cell lysate at 1 uM by KiNativ Profiling analysis relative to control; format: subcellular
Mitogen-activated protein kinase kinase kinase 11 (Homo sapiens), sequence (Q16584 whole entry, looked up): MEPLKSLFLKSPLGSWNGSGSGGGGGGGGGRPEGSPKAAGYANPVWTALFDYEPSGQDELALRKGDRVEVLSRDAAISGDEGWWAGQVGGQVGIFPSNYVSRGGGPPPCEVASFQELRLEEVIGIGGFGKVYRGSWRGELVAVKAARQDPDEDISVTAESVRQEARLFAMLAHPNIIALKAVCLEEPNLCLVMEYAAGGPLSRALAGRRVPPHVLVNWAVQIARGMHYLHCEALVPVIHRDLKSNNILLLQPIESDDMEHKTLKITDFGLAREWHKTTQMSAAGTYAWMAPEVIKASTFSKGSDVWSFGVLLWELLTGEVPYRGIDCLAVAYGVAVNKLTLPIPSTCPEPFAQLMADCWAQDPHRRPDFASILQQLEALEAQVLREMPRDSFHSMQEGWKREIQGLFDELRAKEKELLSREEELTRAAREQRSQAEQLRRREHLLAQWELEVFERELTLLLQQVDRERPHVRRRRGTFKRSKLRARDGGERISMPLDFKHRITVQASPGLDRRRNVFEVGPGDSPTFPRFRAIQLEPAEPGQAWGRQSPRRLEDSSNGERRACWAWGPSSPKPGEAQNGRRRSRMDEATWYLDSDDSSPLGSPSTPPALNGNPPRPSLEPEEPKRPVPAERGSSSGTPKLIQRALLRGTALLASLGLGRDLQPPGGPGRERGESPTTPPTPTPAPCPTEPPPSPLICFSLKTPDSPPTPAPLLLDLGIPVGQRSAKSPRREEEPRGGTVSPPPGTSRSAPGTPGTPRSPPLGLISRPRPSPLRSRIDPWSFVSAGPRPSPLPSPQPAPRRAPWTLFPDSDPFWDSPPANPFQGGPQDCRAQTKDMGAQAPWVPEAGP

[2] = biological target: Glycogen synthase kinase-3 beta (Homo sapiens) (UniProt P49841); test: Inhibition of GSK3B Lys2 labeling site in human Huh-7 cell lysate at 1 uM by KiNativ Profiling analysis relative to control; format: subcellular
[3] = system: Epidermal growth factor receptor (Homo sapiens), P00533 [G719S]; test: Inhibition of EGFR G719S mutant (unknown origin) at 10 uM by Ambit Kinomescan binding assay relative to control
Epidermal growth factor receptor (Homo sapiens), P00533 [G719S], sequence (P00533 whole entry G719S): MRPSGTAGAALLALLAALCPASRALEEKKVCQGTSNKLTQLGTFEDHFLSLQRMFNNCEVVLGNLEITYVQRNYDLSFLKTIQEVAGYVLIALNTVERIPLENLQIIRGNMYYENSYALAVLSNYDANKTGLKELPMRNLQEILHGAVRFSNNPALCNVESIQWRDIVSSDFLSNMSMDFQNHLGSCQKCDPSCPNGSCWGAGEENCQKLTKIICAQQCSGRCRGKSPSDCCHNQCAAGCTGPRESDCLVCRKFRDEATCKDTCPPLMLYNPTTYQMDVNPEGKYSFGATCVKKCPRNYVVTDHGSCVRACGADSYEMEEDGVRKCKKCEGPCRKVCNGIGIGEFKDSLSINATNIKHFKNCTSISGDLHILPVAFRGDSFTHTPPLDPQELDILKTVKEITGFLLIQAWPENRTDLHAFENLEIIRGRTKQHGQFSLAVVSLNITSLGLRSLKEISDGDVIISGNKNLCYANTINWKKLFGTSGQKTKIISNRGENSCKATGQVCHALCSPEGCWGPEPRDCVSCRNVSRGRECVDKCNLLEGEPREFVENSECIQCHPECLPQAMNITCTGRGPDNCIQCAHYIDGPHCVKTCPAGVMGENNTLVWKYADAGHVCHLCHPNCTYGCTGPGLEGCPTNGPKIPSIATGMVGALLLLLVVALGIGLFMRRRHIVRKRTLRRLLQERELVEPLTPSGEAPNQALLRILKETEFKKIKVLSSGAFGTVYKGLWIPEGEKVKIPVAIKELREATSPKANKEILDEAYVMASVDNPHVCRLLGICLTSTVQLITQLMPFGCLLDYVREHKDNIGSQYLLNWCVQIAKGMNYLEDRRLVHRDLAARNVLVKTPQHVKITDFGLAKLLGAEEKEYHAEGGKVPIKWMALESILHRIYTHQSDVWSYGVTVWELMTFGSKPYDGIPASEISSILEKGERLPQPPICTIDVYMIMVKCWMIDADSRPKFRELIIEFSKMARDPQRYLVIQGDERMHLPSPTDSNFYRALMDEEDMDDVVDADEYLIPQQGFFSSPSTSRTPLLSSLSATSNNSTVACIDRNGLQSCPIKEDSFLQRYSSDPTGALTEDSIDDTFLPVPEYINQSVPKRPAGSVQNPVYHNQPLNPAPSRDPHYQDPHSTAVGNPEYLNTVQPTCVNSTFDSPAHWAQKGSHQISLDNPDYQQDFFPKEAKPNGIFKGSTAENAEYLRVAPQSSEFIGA

[4] = biological target: Serine/threonine-protein kinase MARK2 (Homo sapiens) (UniProt Q7KZI7); test: Inhibition of MARK2 (unknown origin) at 10 uM by Ambit Kinomescan binding assay
Serine/threonine-protein kinase MARK2 (Homo sapiens), sequence (Q7KZI7 whole entry, the tested form may be a part): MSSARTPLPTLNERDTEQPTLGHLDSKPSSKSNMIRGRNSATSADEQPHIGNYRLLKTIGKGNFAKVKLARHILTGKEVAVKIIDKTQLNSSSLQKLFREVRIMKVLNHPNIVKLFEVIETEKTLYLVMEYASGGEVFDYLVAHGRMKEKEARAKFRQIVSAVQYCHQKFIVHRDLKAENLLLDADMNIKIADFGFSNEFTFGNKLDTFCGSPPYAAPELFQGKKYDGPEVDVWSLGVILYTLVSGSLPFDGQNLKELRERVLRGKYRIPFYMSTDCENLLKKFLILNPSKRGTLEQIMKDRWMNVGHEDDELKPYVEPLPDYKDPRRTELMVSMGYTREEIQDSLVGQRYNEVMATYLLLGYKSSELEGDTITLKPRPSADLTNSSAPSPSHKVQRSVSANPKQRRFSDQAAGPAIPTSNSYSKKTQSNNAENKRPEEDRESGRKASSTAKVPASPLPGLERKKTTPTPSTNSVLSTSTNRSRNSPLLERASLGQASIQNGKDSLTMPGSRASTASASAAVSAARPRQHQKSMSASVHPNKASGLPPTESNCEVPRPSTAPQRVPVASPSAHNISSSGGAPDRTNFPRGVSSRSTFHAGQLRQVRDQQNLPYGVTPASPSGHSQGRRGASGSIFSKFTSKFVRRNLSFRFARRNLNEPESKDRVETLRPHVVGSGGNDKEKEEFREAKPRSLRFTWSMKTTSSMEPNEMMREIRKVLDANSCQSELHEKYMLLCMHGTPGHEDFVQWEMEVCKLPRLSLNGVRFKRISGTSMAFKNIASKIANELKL

[5] = biological target: LIM domain kinase 2 (Homo sapiens) (UniProt P53671); test: Inhibition of LIMK2 (unknown origin) at 10 uM by Ambit Kinomescan binding assay
[6] = biological target: T1, Aurora kinase A (Homo sapiens) (UniProt O14965); test: Inhibition of AurA K2 labeling site harbouring VIHRDIKPENLLLGSAGELK in human Huh-7 cells at 1 uM by KiNativ Profiling analysis relative to control; format: cell-based
T1 sequence (whole entry): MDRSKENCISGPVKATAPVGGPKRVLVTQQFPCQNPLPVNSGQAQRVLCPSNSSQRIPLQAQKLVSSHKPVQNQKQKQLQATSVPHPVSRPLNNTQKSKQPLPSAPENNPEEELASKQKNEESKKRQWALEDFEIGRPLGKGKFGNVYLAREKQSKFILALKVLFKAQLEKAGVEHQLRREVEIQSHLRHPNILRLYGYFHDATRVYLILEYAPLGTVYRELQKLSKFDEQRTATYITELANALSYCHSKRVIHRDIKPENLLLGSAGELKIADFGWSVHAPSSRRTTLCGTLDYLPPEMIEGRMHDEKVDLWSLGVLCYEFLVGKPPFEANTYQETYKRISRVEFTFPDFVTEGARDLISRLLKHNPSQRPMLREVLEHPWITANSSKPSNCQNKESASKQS

[7] = biological target: Dual specificity tyrosine-phosphorylation-regulated kinase 1B (Homo sapiens) (UniProt Q9Y463); test: Inhibition of DYRK1B (unknown origin) at 10 uM by Ambit Kinomescan binding assay
Dual specificity tyrosine-phosphorylation-regulated kinase 1B (Homo sapiens), sequence (Q9Y463 whole entry, looked up): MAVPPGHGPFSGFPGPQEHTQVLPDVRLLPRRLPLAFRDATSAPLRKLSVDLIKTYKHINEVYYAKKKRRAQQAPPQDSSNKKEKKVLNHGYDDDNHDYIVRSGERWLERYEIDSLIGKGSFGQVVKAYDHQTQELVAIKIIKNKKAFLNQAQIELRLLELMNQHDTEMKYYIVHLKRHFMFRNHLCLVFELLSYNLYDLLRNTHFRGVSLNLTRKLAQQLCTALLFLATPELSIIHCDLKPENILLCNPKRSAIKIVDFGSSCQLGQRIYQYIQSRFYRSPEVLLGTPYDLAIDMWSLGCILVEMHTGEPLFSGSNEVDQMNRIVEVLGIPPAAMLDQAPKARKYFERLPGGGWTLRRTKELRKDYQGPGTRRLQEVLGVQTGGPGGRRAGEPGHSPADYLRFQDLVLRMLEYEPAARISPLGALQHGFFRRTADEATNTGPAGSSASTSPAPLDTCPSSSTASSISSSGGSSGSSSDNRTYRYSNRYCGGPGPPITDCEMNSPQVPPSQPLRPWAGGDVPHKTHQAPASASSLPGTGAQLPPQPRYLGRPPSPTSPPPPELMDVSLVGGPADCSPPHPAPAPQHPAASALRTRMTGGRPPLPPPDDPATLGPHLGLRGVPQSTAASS

[8] = biological target: Calcium/calmodulin-dependent protein kinase type 1D (Homo sapiens) (UniProt Q8IU85); test: Inhibition of CAMK1D (unknown origin) at 1 uM by Ambit Kinomescan binding assay relative to control; values are per cent of control
[9] = biological target: T2, Mitogen-activated protein kinase kinase kinase 3 (Homo sapiens) (UniProt Q99759); test: Inhibition of MAP3K3 (unknown origin) at 1 uM by Ambit Kinomescan binding assay relative to control; values are per cent of control
T2 sequence (whole entry): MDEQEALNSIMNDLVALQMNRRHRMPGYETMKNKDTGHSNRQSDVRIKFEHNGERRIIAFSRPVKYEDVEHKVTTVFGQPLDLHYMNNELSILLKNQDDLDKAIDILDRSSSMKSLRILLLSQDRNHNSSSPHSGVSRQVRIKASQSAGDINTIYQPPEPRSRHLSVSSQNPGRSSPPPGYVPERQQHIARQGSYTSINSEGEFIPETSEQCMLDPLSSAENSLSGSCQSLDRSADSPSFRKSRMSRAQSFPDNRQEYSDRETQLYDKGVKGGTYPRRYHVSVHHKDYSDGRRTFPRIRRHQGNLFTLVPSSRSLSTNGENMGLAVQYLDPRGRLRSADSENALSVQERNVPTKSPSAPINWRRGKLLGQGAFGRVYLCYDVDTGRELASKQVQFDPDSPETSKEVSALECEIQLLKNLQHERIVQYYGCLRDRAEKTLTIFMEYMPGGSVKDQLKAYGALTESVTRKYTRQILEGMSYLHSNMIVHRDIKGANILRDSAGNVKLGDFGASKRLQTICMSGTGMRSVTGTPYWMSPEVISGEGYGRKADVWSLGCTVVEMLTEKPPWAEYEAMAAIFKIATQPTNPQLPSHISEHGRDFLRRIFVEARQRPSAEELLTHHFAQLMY

[10] = biological target: T3, Phosphatidylinositol 5-phosphate 4-kinase type-2 beta (Homo sapiens) (UniProt P78356); test: Inhibition of PIP5K2B (unknown origin) at 1 uM by Ambit Kinomescan binding assay relative to control; values are per cent of control
T3 sequence (whole entry): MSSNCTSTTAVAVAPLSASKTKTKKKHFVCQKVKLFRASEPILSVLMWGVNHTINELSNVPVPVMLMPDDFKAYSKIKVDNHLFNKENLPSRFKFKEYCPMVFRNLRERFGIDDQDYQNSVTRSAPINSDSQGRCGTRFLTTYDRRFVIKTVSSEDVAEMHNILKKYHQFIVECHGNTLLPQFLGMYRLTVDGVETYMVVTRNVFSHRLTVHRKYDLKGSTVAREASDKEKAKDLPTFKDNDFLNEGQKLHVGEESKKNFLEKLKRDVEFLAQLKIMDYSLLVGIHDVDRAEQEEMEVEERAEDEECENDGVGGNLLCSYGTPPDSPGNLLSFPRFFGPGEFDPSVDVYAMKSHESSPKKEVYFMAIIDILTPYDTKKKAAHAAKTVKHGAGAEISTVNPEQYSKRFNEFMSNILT

[11] = biological target: Phosphatidylinositol 4-kinase beta (Homo sapiens) (UniProt Q9UBF8); test: Inhibition of PI4KB ATP labeling site harbouring VPHTQAVVLNSKDKAPYLIYVEVLECENFDTTSVPAR in human A-375 cells at 0.05 uM by KiNativ Profiling analysis relative to control; format: cell-based
[12] = biological target: Phosphatidylinositol 4,5-bisphosphate 3-kinase catalytic subunit gamma isoform (Homo sapiens) (UniProt P48736); test: Inhibition of PIK3CG (unknown origin) at 1 uM by Ambit Kinomescan binding assay relative to control; values are per cent of control
[13] = biological target: Non-receptor tyrosine-protein kinase TYK2 (Homo sapiens) (UniProt P29597); test: Inhibition of TYK2 JH1catalytic domain (unknown origin) at 1 uM by Ambit Kinomescan binding assay relative to control
Non-receptor tyrosine-protein kinase TYK2 (Homo sapiens), sequence (P29597 whole entry, the tested form may be a part): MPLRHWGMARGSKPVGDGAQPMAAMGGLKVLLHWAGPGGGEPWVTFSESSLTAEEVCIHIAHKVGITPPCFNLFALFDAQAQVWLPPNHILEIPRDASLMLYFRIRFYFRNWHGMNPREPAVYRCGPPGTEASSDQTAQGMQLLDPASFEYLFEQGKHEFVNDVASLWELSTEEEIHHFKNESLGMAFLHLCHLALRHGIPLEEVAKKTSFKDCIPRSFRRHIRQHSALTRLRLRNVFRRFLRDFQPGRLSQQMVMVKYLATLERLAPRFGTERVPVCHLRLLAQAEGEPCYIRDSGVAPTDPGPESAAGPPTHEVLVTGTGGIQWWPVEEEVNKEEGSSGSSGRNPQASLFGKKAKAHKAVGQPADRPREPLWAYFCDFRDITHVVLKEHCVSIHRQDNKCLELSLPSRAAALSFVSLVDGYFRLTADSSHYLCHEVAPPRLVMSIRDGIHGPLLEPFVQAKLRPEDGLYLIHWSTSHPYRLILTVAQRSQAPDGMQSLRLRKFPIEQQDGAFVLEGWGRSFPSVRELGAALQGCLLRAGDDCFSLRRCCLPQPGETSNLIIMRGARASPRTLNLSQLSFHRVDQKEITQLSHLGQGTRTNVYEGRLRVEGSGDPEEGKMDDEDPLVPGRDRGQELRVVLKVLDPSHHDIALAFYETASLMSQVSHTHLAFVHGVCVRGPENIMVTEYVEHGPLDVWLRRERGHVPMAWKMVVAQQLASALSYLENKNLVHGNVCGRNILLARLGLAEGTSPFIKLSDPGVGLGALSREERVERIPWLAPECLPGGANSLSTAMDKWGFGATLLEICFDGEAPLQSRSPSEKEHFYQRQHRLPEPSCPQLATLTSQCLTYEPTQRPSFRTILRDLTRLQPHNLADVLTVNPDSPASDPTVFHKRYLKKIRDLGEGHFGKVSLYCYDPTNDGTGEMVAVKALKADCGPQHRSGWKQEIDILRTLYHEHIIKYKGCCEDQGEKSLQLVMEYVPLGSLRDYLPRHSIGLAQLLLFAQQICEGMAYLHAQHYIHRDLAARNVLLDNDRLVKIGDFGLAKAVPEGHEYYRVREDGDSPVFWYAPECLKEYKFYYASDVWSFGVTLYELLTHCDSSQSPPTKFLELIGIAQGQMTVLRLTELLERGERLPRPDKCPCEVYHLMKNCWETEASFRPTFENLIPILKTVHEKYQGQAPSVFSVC

[14] = biological target: Fibroblast growth factor receptor 2 (Homo sapiens) (UniProt P21802); test: Inhibition of FGFR2 (unknown origin) at 1 uM by Ambit Kinomescan binding assay relative to control; values are per cent of control
[15] = biological target: Serine/threonine-protein kinase pim-1 (Homo sapiens) (UniProt P11309); test: Inhibition of PIM1 (unknown origin) at 1 uM by Ambit Kinomescan binding assay relative to control; values are per cent of control
Serine/threonine-protein kinase pim-1 (Homo sapiens), sequence (P11309 whole entry, looked up): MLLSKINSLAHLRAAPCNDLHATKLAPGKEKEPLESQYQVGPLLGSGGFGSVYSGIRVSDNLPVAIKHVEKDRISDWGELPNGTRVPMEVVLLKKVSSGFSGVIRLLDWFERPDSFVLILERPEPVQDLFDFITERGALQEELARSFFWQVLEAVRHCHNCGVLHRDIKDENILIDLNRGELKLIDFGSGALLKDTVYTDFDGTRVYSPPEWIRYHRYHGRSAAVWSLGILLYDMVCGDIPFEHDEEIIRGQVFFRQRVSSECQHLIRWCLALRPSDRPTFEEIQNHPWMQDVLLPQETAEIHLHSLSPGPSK

SMILES: CNc1cc(Oc2cc(C(=O)Nc3cc(N4CCN(C)CC4)cc(C(F)(F)F)c3)ccc2C)ncn1
- inhibition [1]: 3.4%
- inhibition [2]: 6%

SMILES: CCN1CCN(Cc2ccc(NC(=O)c3ccc(C)c(Oc4ccnc5[nH]ccc45)c3)cc2C(F)(F)F)CC1
- inhibition [3]: 14%
- inhibition [4]: inactive
- inhibition [5]: inactive
- inhibition [6]: inactive
- inhibition [7]: inactive

SMILES: CCN1CCN(Cc2ccc(NC(=O)c3ccc(C)c(/C=C/c4cnc5[nH]ccc5c4OC)c3)cc2C(F)(F)F)CC1
- residual activity [8]: 100%
- residual activity [9]: 2%
- residual activity [10]: 12%
- inhibition [11]: 11.6%
- residual activity [12]: 100%
- inhibition [13]: 70%
- percent of control [14]: 5.4%
- residual activity [15]: 100%
